{
  "source": "patent USRE36397E",
  "about": "“Inhibitors of poly(ADP-ribose) synthetase and use thereof to treat NMDA neurotoxicity” (The John Hopkins University, priority 1998, dated 1999)",
  "key": {"[1]": {"biological_target": "PARS (poly(ADP-ribose) synthetase) (Rattus norvegicus, UniProt P27008)", "sequence (P27008 whole entry)": "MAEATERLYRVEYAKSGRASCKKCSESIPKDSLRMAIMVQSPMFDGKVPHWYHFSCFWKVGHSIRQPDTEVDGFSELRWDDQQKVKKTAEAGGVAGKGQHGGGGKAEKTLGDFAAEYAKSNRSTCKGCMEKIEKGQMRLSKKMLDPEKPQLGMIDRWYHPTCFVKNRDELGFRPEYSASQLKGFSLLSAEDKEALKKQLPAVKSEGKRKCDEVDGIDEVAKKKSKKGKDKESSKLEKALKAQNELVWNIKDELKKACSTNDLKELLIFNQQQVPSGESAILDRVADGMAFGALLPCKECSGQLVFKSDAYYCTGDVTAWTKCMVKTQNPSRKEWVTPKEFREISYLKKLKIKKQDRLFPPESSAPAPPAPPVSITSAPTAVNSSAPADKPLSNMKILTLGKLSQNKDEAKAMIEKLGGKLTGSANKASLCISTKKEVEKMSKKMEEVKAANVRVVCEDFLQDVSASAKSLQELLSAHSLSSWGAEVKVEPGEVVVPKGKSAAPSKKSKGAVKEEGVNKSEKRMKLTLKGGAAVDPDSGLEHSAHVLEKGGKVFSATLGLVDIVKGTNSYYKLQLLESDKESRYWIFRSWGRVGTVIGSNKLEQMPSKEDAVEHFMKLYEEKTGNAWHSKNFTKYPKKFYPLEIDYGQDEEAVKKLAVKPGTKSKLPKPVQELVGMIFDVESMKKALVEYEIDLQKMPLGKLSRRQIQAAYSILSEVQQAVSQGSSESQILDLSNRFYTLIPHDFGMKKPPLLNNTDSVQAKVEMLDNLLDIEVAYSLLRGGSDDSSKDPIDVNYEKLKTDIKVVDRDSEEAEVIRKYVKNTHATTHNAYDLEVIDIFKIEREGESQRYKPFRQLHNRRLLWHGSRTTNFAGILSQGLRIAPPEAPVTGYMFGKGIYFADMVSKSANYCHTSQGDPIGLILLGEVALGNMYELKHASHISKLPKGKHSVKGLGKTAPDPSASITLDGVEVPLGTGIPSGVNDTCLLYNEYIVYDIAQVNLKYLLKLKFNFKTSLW", "assay": "PARS activity in rat brain nuclear extracts", "assay_type": "biochemical", "details": "for activity at 20 µM: read-out: PARS activity, % of basal levels", "source_text": "Inhibitors of poly(ADP-ribose) synthetase are compounds which compete for the substrate binding site of poly(ADP-ribose) synthetase or other sites on the enzyme, and include both reversible and irreversible inhibitors. The present invention contemplates the use of any physiologically acceptable inhibitor which inhibits poly(ADP-ribose) synthetase activity. The effectiveness of a compound, and its relative potency as a poly(ADP-ribose) synthetase inhibitor, can be tested and routinely determined by measuring inhibition of poly(ADP-ribose) synthetase activity. Poly(ADP-ribose) synthetase activity can be assayed according to the method of Schranfstatter, et al., J. Clin. Inves. 77, 1312 (1986).\nWhole brains from 1-day old rats were homogenized in 20% (w/v) buffer A [50 mM Tris-HCl (pH 7.4), 1 mM EDTA, 1 mM DTT, 50 mM NaCl, 0.25M sucrose, 0.2 mM phenylmethylsulfonyl fluoride, 1 μg/ml each of chymostatin, leupeptin, pepstatin and trypsin inhibitor]. The homogenate was centrifuged at 1000 g for 15 min. The pellet was washed with buffer A and centrifuged again. The washed pellet, termed nuclear fraction, was resuspended in buffer A. PARS activity was assayed according to I. U. Schranfstatter, et al., J. Clin. Inves. 77, 1312 (1986). Each 50 μl assay mixture contained 10 μg of the nuclear protein fraction and [adenylate-^32 P]"}, "[2]": {"test_system": "primary neuronal cultures from cortex", "assay": "NMDA neurotoxicity in cerebral cortical cultures (trypan blue, % cell death)", "assay_type": "cell-based, Sprague-Dawley rats", "details": "for protection against NMDA neurotoxicity (in words): 10 μM 1,5-dihydroxyisoquinoline, 1 mM novobiocin, Table 1A and summary statements", "procedure": "To determine directly if PARS activation participates in NMDA neurotoxicity, we monitored neurotoxicity elicited by NMDA in cerebral cortical cultures in which NO synthase inhibitors provide marked protection (V. L. Dawson et al., Proc. Natl. Acad. Sci. U.S.A. 88, 6368 (1991); V. L. Dawson et al., J. Neurosci. 13, 2651 (1993)) (FIG. 2).\nTable 1A, PARS inhibitors were applied 30 min before and during NMDA application. In Table 1B, PARS inhibitors were applied after NMDA administration at the indicated times for 20 to 24 hr. Data are the means ±SEM (n≥8). Each data point represents 4,000-12,000 neurons counted. *p≤0.001 Student's t-test.\n(§1) Primary neuronal cultures from cortex were prepared from fetal Sprague-Dawley rats, gestation day 13-14. Mature neurons (grater than 21 days in culture) were used in all experiments.\n(§2) Neurotoxicity was determined by exposing the neurons to the various test solutions as previously described (Dawson, supra). […], SNP or SNAP were applied to the cells for 5 min, then the cells were washed and replaced with MEM, 21 mM glucose overnight in the incubator. Twenty to 24 hr after exposure to test solutions, the neurons were exposed to 0.4% trypan blue in CSS to stain the residue of non-viable cells and to assess toxicity. Viable and non-viable cells were counted. At least two separate experiments utilizing four separate wells were performed for each data point shown. Significant overall values were obtained by using a one-way, between groups analysis of variance. Specific comparisons on all possible pair combinations were made with the Student's t-test for independent means."}, "[3]": {"assay": "Direct interaction of benzamide with SNP/NO (HPLC recovery)", "assay_type": "physicochemical"}, "PARS": {"test_system": "PARS", "details": "cited from earlier work; for relative potency as PARS inhibitor (in words): family of benzamide and its derivatives"}, "[4]": {"test_system": "primary neuronal cultures from cortex", "assay": "SNP and SNAP (NO releaser) neurotoxicity in cortical neuronal cultures", "assay_type": "cell-based, Sprague-Dawley rats", "details": "for inhibition at 100 µM: Rattus norvegicus, Primary cortical neuron", "procedure": "as §1, §2\n(§3) To ascertain whether NO itself elicits neurotoxicity by activation of PARS, we administered the NO releasers SNP and S-nitroso-N-acetylpenicillamine (SNAP). […] In human kidney 293 cells stably transfected with the cDNA of brain."}, "brain NOS": {"test_system": "brain NOS", "assay": "Nitrite formation in human kidney 293 cells stably transfected with brain NOS cDNA", "assay_type": "cell-based", "details": "for nitrite formation: A23187 (10 μM), 2 hr, inhibitors 100 μM, n=3", "source_text": "as §3"}, "pancreatic islet cells": {"test_system": "pancreatic islet cells", "details": "Kallman et al. 1992; cited from earlier work"}, "[5]": {"details": "Table 1A, 500 μM NMDA + 1 mM compound, 30 min before and during NMDA"}, "[6]": {"details": "Table 1A, 500 μM NMDA + 100 μM compound, 30 min before and during NMDA"}},
  "note": "Entries after “also recorded” stand apart in the source; their conditions may differ. Read-outs that look alike come from different tables or passages of the source.",
  "data": [
    {"molecule": "Oc1cccc2c(O)nccc12", "note": "[1,5-dihydroxyisoquinoline]", "values": [
      {"measurement": "activity at 20 µM", "setting": "[1]; inhibitor 20 μM, NO-treated DNA, FIG. 1A", "result": "< 5", "unit": "%"},
      {"measurement": "protection against NMDA neurotoxicity (in words)", "setting": "[2]", "result": "neuroprotective"},
      {"measurement": "protection against NMDA neurotoxicity (in words)", "setting": "[2]; listed as 1,5-dihydroxy-isoquinoline", "result": "found to prevent neurotoxicity"},
      {"measurement": "% Cell Death (± S.E.M.)", "setting": "[2]; Table 1A, 500 μM NMDA + 10 μM compound, 30 min before and during NMDA", "result": "39.0 ± 4.5", "unit": "%"}
    ]},
    {"molecule": "[NH-]c1c[n+](N2CCOCC2)no1", "note": "[SIN-1, 3-morpholinosyndnonimine]", "values": [
      {"measurement": "effect on PARS activity by itself", "setting": "[1]; SNP 1 mM, SIN-1 1 mM or untreated DNA, alone", "result": "no effects on PARS"}
    ]},
    {"molecule": "CN[C@H](CC(=O)O)C(=O)O", "note": "[NMDA, N-methyl- D-aspartate]", "values": [
      {"measurement": "% Cell Death (± S.E.M.)", "setting": "[2]; Table 1A, 500 μM NMDA alone", "result": "57.1 ± 4.7", "unit": "%"},
      {"measurement": "% Cell Death (± S.E.M.)", "setting": "[2]; Table 1B, 500 μM NMDA alone", "result": "74.7 ± 7.8", "unit": "%"}
    ]},
    {"molecule": "CO[C@@H]1[C@@H](OC(N)=O)[C@@H](O)[C@H](Oc2ccc3c(O)c(NC(=O)c4ccc(O)c(CC=C(C)C)c4)c(=O)oc3c2C)OC1(C)C", "note": "[novobiocin]", "values": [
      {"measurement": "protection against NMDA neurotoxicity (in words)", "setting": "[2]", "result": "found not to have any activity in preventing neurotoxicity; also recorded: ineffective"},
      {"measurement": "% Cell Death (± S.E.M.)", "setting": "[2]; [5]", "result": "62.4 ± 8.9", "unit": "%"}
    ]},
    {"molecule": "NC(=O)c1ccccc1", "note": "[benzamide]", "values": [
      {"measurement": "interaction with NO", "setting": "[3]", "result": "did not interact; also recorded: did not interact with NO"},
      {"measurement": "recovery of benzamide after incubation with SNP", "setting": "[3]; benzamide 1 mM, SNP 1 mM, five days, 25° C., HPLC C18, 7200 min", "result": 100, "unit": "%"},
      {"measurement": "IC50", "setting": "PARS; in vitro, Banasik et al. 1992, read-out: IC50 for inhibiting PARS in vitro", "result": 22, "unit": "µM"},
      {"measurement": "protection against NMDA neurotoxicity (in words)", "setting": "[2]", "result": "found to prevent neurotoxicity"},
      {"measurement": "protection against NMDA neurotoxicity (in words)", "setting": "[2]; listed as Benzamide", "result": "greatest degree of protection"},
      {"measurement": "protection against NMDA neurotoxicity", "setting": "[2]; 50 μM", "result": "no significant protection was detected"},
      {"measurement": "reduction of NMDA mediated neurotoxicity", "setting": "[2]; 100 μM, FIG. 2 legend", "result": "reduces"},
      {"measurement": "greater protection than at 100 μM", "setting": "[2]; 500 μM versus 100 μM", "result": "about 30%"},
      {"measurement": "inhibition at 100 µM", "setting": "[2]; Rattus norvegicus, Primary cortical neuron, read-out: protection against NMDA neurotoxicity", "result": "40 to 50", "unit": "%"},
      {"measurement": "% Cell Death (± S.E.M.)", "setting": "[2]; Table 1A, 500 μM NMDA + 50 μM compound, 30 min before and during NMDA", "result": "60.1 ± 12.1", "unit": "%"},
      {"measurement": "% Cell Death (± S.E.M.)", "setting": "[2]; [6]", "result": "39.5 ± 5.0", "unit": "%"},
      {"measurement": "% Cell Death (± S.E.M.)", "setting": "[2]; Table 1A, 500 μM NMDA + 500 μM compound, 30 min before and during NMDA", "result": "21.9 ± 4.1", "unit": "%"},
      {"measurement": "% Cell Death (± S.E.M.)", "setting": "[2]; Table 1B, 100 μM compound applied 5 min after 500 μM NMDA", "result": "35.6 ± 8.7", "unit": "%"},
      {"measurement": "% Cell Death (± S.E.M.)", "setting": "[2]; Table 1B, 100 μM compound applied 30 min after 500 μM NMDA", "result": "40.4 ± 5.6", "unit": "%"},
      {"measurement": "% Cell Death (± S.E.M.)", "setting": "[2]; Table 1B, 100 μM compound applied 1 hour after 500 μM NMDA", "result": 43.4, "unit": "%"},
      {"measurement": "reduction of SNAP mediated neurotoxicity", "setting": "[4]; 100 μM, SNAP (300 μM), FIG. 2 legend", "result": "reduces"},
      {"measurement": "reduction of SNP mediated neurotoxicity", "setting": "[4]; 100 μM, SNP (500 μM), FIG. 2 legend", "result": "reduces"},
      {"measurement": "inhibition at 100 µM", "setting": "[4]; SNAP, read-out: reduction of SNAP neurotoxicity", "result": "45 to 50", "unit": "%"},
      {"measurement": "inhibition at 100 µM", "setting": "[4]; SNP, read-out: reduction of SNP neurotoxicity", "result": "45 to 50", "unit": "%"}
    ]},
    {"molecule": "Nc1ccc2c3c(cccc13)C(=O)NC2=O", "note": "[4-amino-1,8-naphthalimide]", "values": [
      {"measurement": "activity at 20 µM", "setting": "[1]", "result": "< 5", "unit": "%"}
    ]},
    {"molecule": "CNc1ccc2oc(C[C@H]3O[C@@]4(CC[C@H]3C)O[C@H]([C@H](C)C(=O)c3ccc[nH]3)[C@H](C)C[C@H]4C)nc2c1C(=O)O", "note": "[A23187]", "values": [
      {"measurement": "nitrite formation", "setting": "brain NOS", "result": "17.1±2.1", "unit": "μM nitrite"}
    ]},
    {"molecule": "nitroarginine", "values": [
      {"measurement": "effect on NOS / stimulated nitrite levels", "setting": "brain NOS; 100 μM", "result": "abolished"},
      {"measurement": "nitrite formation", "setting": "brain NOS", "result": "3.9±1.6", "unit": "μM nitrite"}
    ]},
    {"molecule": "NC(=O)c1ccc(N)cc1", "note": "[4-aminobenzamide]", "values": [
      {"measurement": "fold weaker than benzamide as PARS inhibitor", "setting": "PARS; relative to benzamide", "result": "50-100 fold"},
      {"measurement": "% Cell Death (± S.E.M.)", "setting": "[2]; [6]", "result": "55.8 ± 7.6", "unit": "%"}
    ]},
    {"molecule": "NC(=O)c1cccc(N)c1", "note": "[3-aminobenzamide]", "values": [
      {"measurement": "relative potency as PARS inhibitor (in words)", "setting": "PARS; relative to benzamide", "result": "about half as potent"},
      {"measurement": "protection of pancreatic islet cells from macrophage cytotoxicity", "setting": "pancreatic islet cells", "result": "protects pancreatic islet cells from macrophage cytotoxicity"},
      {"measurement": "protection against NMDA neurotoxicity (in words)", "setting": "[2]", "result": "found to have the ability to prevent neurotoxicity; also recorded: somewhat less protection"},
      {"measurement": "% Cell Death (± S.E.M.)", "setting": "[2]; [6]", "result": "45.9 ± 5.1", "unit": "%"}
    ]},
    {"molecule": "O=C(O)c1ccccc1", "note": "[Benzoic acid]", "values": [
      {"measurement": "relative potency as PARS inhibitor (in words)", "setting": "PARS; relative to benzamide", "result": "inactive"},
      {"measurement": "protection against NMDA neurotoxicity (in words)", "setting": "[2]", "result": "found not to have any activity"},
      {"measurement": "protection against NMDA neurotoxicity (in words)", "setting": "[2]; listed as benzoic acid", "result": "inactive"},
      {"measurement": "% Cell Death (± S.E.M.)", "setting": "[2]; [5]", "result": "58.9 ± 5.7", "unit": "%"}
    ]}
  ]
}
